Where a name gives a salt, the structure may show the parent alone.
What was measured:
[1] = target: T1, serotonin 1A receptor (Rattus norvegicus, UniProt P19327); assay: Binding test on [3H] 8-hydroxy-dipropylaminotetralin (serotonin 1A receptor); settings: [3H] 8-OH-DPAT 0.5 nM, receptor fraction of rat hippocampus; read-out: 5HT1a
T1 construct: To the receptor fraction of the hippocampus were added a test compound and 0.5 nM of [^3H]; 8-hydroxy-dipropylaminotetralin; from tissue; host or cells: SD rat hippocampus, membrane (receptor) fraction
T1 sequence (P19327 1-422): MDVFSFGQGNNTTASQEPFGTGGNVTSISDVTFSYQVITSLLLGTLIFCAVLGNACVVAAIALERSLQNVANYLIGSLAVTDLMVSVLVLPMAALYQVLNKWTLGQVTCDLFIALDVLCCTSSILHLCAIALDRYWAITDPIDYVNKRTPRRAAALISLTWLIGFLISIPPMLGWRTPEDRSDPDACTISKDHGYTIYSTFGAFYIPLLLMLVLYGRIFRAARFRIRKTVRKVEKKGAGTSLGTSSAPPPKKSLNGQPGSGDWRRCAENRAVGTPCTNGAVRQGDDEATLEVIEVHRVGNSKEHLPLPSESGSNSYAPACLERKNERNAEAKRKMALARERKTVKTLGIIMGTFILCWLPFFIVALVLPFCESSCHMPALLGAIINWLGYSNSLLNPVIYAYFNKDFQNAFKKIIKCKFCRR
Description: 3) [^3H] 8-Hydroxy-dipropylaminotetralin (8-OH-DPAT).
Use was made of SD rats aged 6 to 8 weeks.
The rats were sacrificed by dcapitation to extirpate the cerebra.
Each mixture was homogenized by using a Teflon glass homogenizer and centrifuged at 1,000×g for 10 min. The supernatant thus obtained was further centrifuged at 20,000×g for 20 min. The obtained precipitate was re-suspended in 50 times (based on the intial wet weight; in the case of the hippocampus) or 10 times (in the case of the cortex) as much a 50 mM Tris hydrochloride (pH 7.4) and incubated at room temperature for 30 min. After centrifuging at 20,000×g for 20 min, the obtained precipitate was further suspended and centrifuged twice each in the same manner. The precipitate thus obtained was suspended in 100 times (based on the initial wet weight; in the case of the hippocampus) or 20 times (in the case of the cortex) as much a 50 mM Tris hydrochloride solution (pH 7.4) to thereby give a receptor fraction. This receptor fraction was stored at −80° C. until using.
(Binding Test on [^3H] 8-hydroxy-dipropylaminotetralin)
To the receptor fraction of the hippocampus were added a test compound and 0.5 nM of [^3H] 8-hydroxy-dipropylaminotetralin and the resultant mixture was incubated at room temperature for 30 min. Next, it was filtered through a glass filter with the use of a cell harvester. After washing the glass filter with 50 mM Tris hydrochloride (pH 7.4), the radioactivity of the receptor was measured with a liquid scintillation counter. The binding detected in the presence of 10 μM of serotonin binoxalate was referred to as the nonspecific binding.
IC50 was calculated by the probit method, while Ki was determined in accordance with the following formula:
wherein c represents the concentration of the radioisotope-labeled compound, and Kd represents the dissociation constant of the radioisotope-labeled compound with respect to the receptor determined by Scatchard's analysis.

[2] = target: serotonin 2 receptor (Rattus norvegicus, UniProt P14842); assay: Binding test on [3H] ketanserin (serotonin 2 receptor); settings: [3H] ketanserin 0.3 nM, receptor fraction of rat cerebral cortex; read-out: 5HT2
Sequence of serotonin 2 receptor (P14842 whole entry): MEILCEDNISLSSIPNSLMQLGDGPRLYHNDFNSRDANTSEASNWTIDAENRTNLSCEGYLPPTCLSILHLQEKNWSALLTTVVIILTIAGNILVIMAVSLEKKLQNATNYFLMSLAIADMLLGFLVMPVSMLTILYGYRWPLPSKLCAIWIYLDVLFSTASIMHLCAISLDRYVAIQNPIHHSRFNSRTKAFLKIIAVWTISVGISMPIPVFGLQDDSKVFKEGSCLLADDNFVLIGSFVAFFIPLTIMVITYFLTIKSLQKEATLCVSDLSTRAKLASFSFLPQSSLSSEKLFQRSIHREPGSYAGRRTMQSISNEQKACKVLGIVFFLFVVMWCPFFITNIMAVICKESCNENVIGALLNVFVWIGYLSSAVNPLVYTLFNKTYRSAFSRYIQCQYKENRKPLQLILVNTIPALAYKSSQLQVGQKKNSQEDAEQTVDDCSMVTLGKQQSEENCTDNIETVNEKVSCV

| SMILES | Ki [1] | Ki [2] |
| --- | --- | --- |
| CCNc1ccc(CCN2CCC(N3CCc4ccccc43)CC2)cc1 [Example 33, 1-[1-(4-ethylaminophenethyl)piperidin-4-yl]indoline] | 5.7 nM | 24.3 nM |
| O=Cc1ccc2c(c1)N(C1CCN(CCc3ccc(F)cc3)CC1)CC2 [Example 130, 1-[1-(4-fluorophenethyl)piperidin-4-yl]-6-formylindoline] | 0.49 nM | 9.12 nM |
| CCN1CCC(N2CC(Cc3cccnc3)c3ccccc32)CC1 (stereo not drawn) [Example 245, 1-(1-ethylpiperidin-4-yl)-3-(3-pyridylmethyl)indoline] | > 200 nM | 11.2 nM |
| COc1ccc(CCN2CCC(N3CCc4ccc(Cl)nc43)CC2)cc1 [Example 263, 1-[1-(4-methoxyphenethyl)piperidin-4-yl]-6-chloro-7-azaindoline] | 0.46 nM | > 200 nM |
| CN1CCC(N2CCc3ccc(NS(=O)(=O)c4ccc(F)cc4)cc32)CC1 [Example 237, 1-(1-methylpiperidin-4-yl)-6-(4-fluorobenzenesulfonylamino)indoline] | 30.4 nM | > 200 nM |
| CC(=O)Nc1ccc2c(c1)N(C1CCN(CCc3ccc(F)cc3F)CC1)CC2 [Example 222, 1-[1-(2,4-difluorophenethyl)piperidin-4-yl]-6-acetamidoindoline] | 0.04 nM | 18.1 nM |
| CCCNC(=O)Cc1ccc2c(c1)N(C1CCN(CCc3ccc(F)cc3)CC1)CC2 [Example 150, 1-[1-(4-fluorophenethyl)piperidin-4-yl]-6-(n-propylcarbamoylmethyl)indoline] | 13 nM | 0.16 nM |
| O=C1CCCCN1Cc1ccc2c(c1)N(C1CCN(CCc3ccc(F)cc3)CC1)CC2 [Example 203, 1-[1-(4-fluorophenethyl)piperidin-4-yl]-6-(2-piperidon-1-yl)methylindole] | 0.55 nM | 4.61 nM |
| Fc1ccc(CCN2CCC(N3CCc4ccc(Cc5cccnc5)cc43)CC2)cc1 [Example 177, 1-[1-(4-fluorophenethyl)piperidin-4-yl]-6-[1-(3-pyridyl)methyl]indoline] | 0.25 nM | 0.92 nM |
| c1ccc(CCN2CCC(N3CCc4ccccc43)CC2)nc1 [Example 50, 1-{1-[2-(2-pyridyl)ethyl]piperidin-4-yl}indoline] | 31.2 nM | 52.2 nM |
| CC(O)(c1ccc2c(c1)N(C1CCN(CCc3ccc(F)cc3)CC1)CC2)c1ccccn1 (stereo not drawn) [Example 181, 1-[1-(4-fluorophenethyl)piperidin-4-yl]-6-[1-hydroxy-1-(2-pyridyl)ethyl]indoline] | 1030 nM | 9.62 nM |
| OC(c1ccc2c(c1)N(C1CCN(CCc3ccc(F)cc3)CC1)CC2)c1cscn1 (stereo not drawn) [Example 195, 1-[1-(4-fluorophenethyl)piperidin-4-yl]-6-[1-(4-thiazolyl)-1-hydroxymethyl]indoline] | 5.73 nM | 1.15 nM |
| Fc1ccc(CCN2CCC(CN3CCc4ccccc43)CC2)cc1 [Example 16, 1-[1-(4-fluorophenethyl)piperidin-4-yl]methylindoline] | 109 nM | 13.9 nM |
| NCc1ccc(CCN2CCC(N3CCc4ccccc43)CC2)cc1 [Example 35, 1-[1-(4-aminomethylphenethyl)piperidin-4-yl]indoline] | 16.6 nM | 37.6 nM |
| CCN1CC[C@H](N2CCc3ccccc32)[C@H](COc2ccc(F)cc2)C1 (relative stereo) [Example 84, cis-1-[1-ethyl-3-(4-fluorophenoxymethyl)piperidin-4-yl]indoline] | > 200 nM | 134 nM |
| c1ccc2c(c1)CCN2C1CCN(CCCOc2ccc3c(c2)OCO3)CC1 [Example 78, 1-{1-[3-(3,4-methylenedioxypheoxy)propyl]piperidin-4-yl}indoline] | 2.4 nM | 29.6 nM |
| Cn1cccc1-c1ccc2ccn(C3CCN(CCc4ccc(F)cc4)CC3)c2c1 [Example 287, 1-[1-(4-fluorophenethyl)piperidin-4-yl]-6-(1-methylpyrrol-2-yl)indole] | 0.1 nM | > 200 nM |
| OCCOc1ccc2c(c1)CCCC2C1CCN(CCc2ccc(F)cc2)CC1 (stereo not drawn) [Example 278, 1-[2-(4-fluorophenyl)ethyl]-4-[6-(2-hydroxy)ethoxy-1,2,3,4-tetrahydronaphthalen-1-yl]piperidine] | > 200 nM | 3.9 nM |
| COc1ccc2c(c1)N(C1CCN(CCc3ccc(S(N)(=O)=O)cc3)CC1)CC2 [Example 230, 1-[1-(4-sulfamoylphenethyl)piperidin-4-yl]-6-methoxyindoline] | 13.3 nM | > 200 nM |
| CN(c1ccc2c(c1)N(C1CCN(CCc3ccc(F)cc3)CC1)CC2)S(C)(=O)=O [Example 120] | 1 nM | 11.2 nM |

| SMILES | Ki [1] | Ki [2] |
| --- | --- | --- |
| CCN1CCC(N2CC(Cc3ccc(OC)cc3)c3ccccc32)CC1 (stereo not drawn) [Example 242, 1-(1-ethylpiperidin-4-yl)-3-(4-methoxybenzyl)indoline] | > 200 nM | 2.3 nM |
| Fc1ccc(CCN2CCC(N3CCc4ccccc43)CC2)c(F)c1 [Example 10, 1-[1-(2,4-difluorophenethyl)piperidin-4-yl]indoline] | 8.1 nM | 6 nM |
| O=C(Cc1ccc2ccn(C3CCN(CCc4ccc(F)cc4)CC3)c2c1)NCCc1ccccn1 [Example 315, 1-[1-(4-fluorophenethyl)piperidin-4-yl]-6-[2-(pyridin-2-yl)ethyl]carbamoylmethylindole Oxalate] | 6.74 nM | 1.18 nM |
| CC(O)c1ccc(CCN2CCC(N3CCc4ccccc43)CC2)cc1 (stereo not drawn) [Example 25, 1-{4-[(1-hydroxyethyl)phenethyl]piperidin-4-yl}indoline] | 8.3 nM | 13.1 nM |
| Fc1ccc(CCN2CCC(N3CCc4ccc(-c5ccc(F)cc5)cc43)CC2)cc1 [Example 201, 1-[1-(4-fluorophenethyl)piperidin-4-yl]-6-(4-fluorophenyl)indoline] | 7.05 nM | > 200 nM |
| CCCC(=O)NCc1ccc2c(c1)N(C1CCN(CCc3ccc(F)cc3)CC1)CC2 [Example 157, 1-[1-(4-fluorophenethyl)piperidin-4-yl]-6-(n-butyryl)aminomethylindoline] | 4.11 nM | 0.18 nM |
| Fc1ccc(CCN2CCC(CCN3CCc4ccccc43)CC2)cc1 [Example 17, 1-{2-[1-(4-fluorophenethyl)piperidin-4-yl]ethyl}indoline] | 19 nM | 16.4 nM |
| c1ccc2c(c1)CCN2C1CCN(CCc2c[nH]c3ccccc23)CC1 [Example 62, 1-{1-[(indol-3-yl)ethyl]-piperidin-4-yl}indoline] | 6.2 nM | 7.4 nM |
| OC(c1ccc2c(c1)N(C1CCN(CCc3ccc(F)cc3)CC1)CC2)c1ccccn1 (stereo not drawn) [Example 174, 1-[1-(4-fluorophenethyl)piperidin-4-yl]-6-[1-hydroxy-1-(2-pyridyl)methyl]indoline] | 0.24 nM | 1.85 nM |
| c1ccc2c(c1)CCN2C1CCN(CCc2ccc3c(c2)OCO3)CC1 [Example 46, 1-{1-[3,4-(methylenedioxy)phenethyl]piperidin-4-yl}indoline] | 1.1 nM | 4.2 nM |
| NC(=O)c1ccc(CCN2CCC(N3CCc4ccccc43)CC2)cc1 [Example 40, 1-[1-(4-carbamoylphenethyl)piperidin-4-yl]indoline] | 43.7 nM | > 200 nM |
| O=C(NCc1ccc2c(c1)N(C1CCN(CCc3ccc(F)cc3)CC1)CC2)C1CC1 [Example 159, 1-[1-(4-fluorophenethyl)piperidin-4-yl]-6-cyclopropanecarboxamindomethylindoline] | 5.58 nM | 0.76 nM |
| Fc1ccc(CCN2CCC(N3CCc4ccc(CC5CCNCC5)cc43)CC2)cc1 [Example 167, 1-[1-(4-fluorophenethyl)piperidin-4-yl]-6-[(piperidin-4-yl)methyl]indoline] | 6.49 nM | 18.4 nM |
| Fc1ccc(CCN2CCC(N3CCc4ccc(F)nc43)CC2)cc1 [Example 261, 1-[1-(4-fluorophenethyl)piperidin-4-yl]-6-fluoro-7-azaindoline] | 1.5 nM | 5.3 nM |
| OCc1ccc2c(c1)N(C1CCN(CCc3ccc(F)cc3)CC1)CC2 [Example 136, 1-[1-(4-fluorophenethyl)piperidin-4-yl]-6-hydroxymethylindoline] | 3.4 nM | 6.2 nM |
| OC(c1cccnc1)c1ccc2c(c1)N(C1CCN(CCc3ccc(F)cc3)CC1)CC2 (stereo not drawn) [Example 176, 1-[1-(4-fluorophenethyl)piperidin-4-yl]-6-[1-hydroxy-1-(3-pyridyl)methyl]indoline] | 1.67 nM | 0.05 nM |
| Fc1ccc(CCN2CCC(N3CCc4ccc(Cn5cccc5)cc43)CC2)cc1 [Example 210, 1-[1-(4-fluorophenethyl)piperidin-4-yl]-6-(pyrrol-1-yl)methylindoline] | 2.5 nM | 4.93 nM |
| OC1(C2CCc3cccnc32)CCN(CCc2ccc(F)cc2)CC1 (stereo not drawn) [Example 255, 7-[4-hydroxy-1-(4-fluorophenethyl)piperidin-4-yl]-5,6-dihydro-7H-pyrindine] | > 200 nM | 15.7 nM |
| Fc1ccc(CCN2CCC(n3ccc4ccc(F)cc43)CC2)cc1 [Example 333, 1-[1-(4-fluorophenethyl)piperidin-4-yl]-6-fluoroindole] | 1.08 nM | > 20 nM |

Source: patent US6579881B2 (Eisai Co., Ltd., priority 1997, dated 2003)
